Columns and labels:
[1] = system: primary cultured neural stem cells (NSC); assay: Survival and proliferation of primary cultured neural stem cells (neurospheres) in medium without growth factors; format: cell-based, SD rats
Description: The brains were taken from neonatal 1 day SD rats under a sterile condition, and the hippocampi were isolated and placed in culture dish containing a small amount of high glucose DMEM/F12; the meninges and blood vessels were divested, and the tissue was cut into small pieces, added with 5 ml cell culture medium, lightly blown and beaten into cell suspension with flame polished Pasteur sucker, and filtered by 400 screen mesh. The ratio of living cells was counted by trypan-blue staining. After the counting, the cells were placed into a 25 ml culture flask at a density of 2×10^6 cells/ml. Basal culture medium DMEM/F12 (1:1), cofactor B27(2%) and growth factor EGF (20 ng/ml)+bFGF (10 ng)/ml) were needed for conventional culture of NSC, and the cells grew as floating spheres in the culture medium. In order to observe the effect of different concentrations of epimedium flavanoide and its effective ingredient […] on primary cultured NSC, basal culture medium DMEM/F12 (1:1) and B27(2%) were used without growth factor, and epimedium flavanoide or […] final concentration of 10, 50, 100, 200, 400 μg/ml was added respectively. Cultures were maintained at 37° C. in a humidified atmosphere of 95% air/5% CO2. The growth state of the cells was observed under inverted microscope, and the diameter of the neurospheres was measured by micro ruler. The identification of neural stem cells: the neurospheres were taken, the culture medium containing growth factor EGF and bFGF were removed, DMEM/F12 containing 10% FBS was added, and inoculated in 24-well culture plates covered with polylysine. After 16 hours of culture, nestin and doublecortin (DCX) immunocytochemical staining was performed.

neural stem cells = assay: Differentiation of neural stem cells (second generation neurospheres) in medium without FBS; format: cell-based, SD rats
Description: The second generation of neurospheres in culture was taken, and the culture medium containing growth factors in the culture flask was removed. The neurospheres were randomly divided into two groups: (1) fetal bovine serum (FBS) control group: the culture medium was DMEM/F12+1% FBS; (2) epimedium flavanoide treatment group: the culture medium was DMEM/F12 (without FBS) added with epimedium flavanoide at a final concentration of 10, 50, 100, 200 and 400 μg/ml, respectively; (3) […] treatment group: the culture medium was DMEM/F12 (without FBS) added with […] final concentration of 10, 50, 100, 200 and 400 μg/ml, respectively. The three groups of the cells were inoculated in 24-well culture plates covered with polylysine. After 7 days of culture, the morphology of the cells was observed under inverted microscope, and fluorescent immunostaining was performed and photographed.

[2] = without fetal bovine serum, 7 days, vs FBS group, P<0.01 (FIG. 4)
[3] = without fetal bovine serum, 7 days, vs FBS group, P<0.01 (FIG. 5)

For `COc1ccc(-c2oc3c(CC=C(C)C)c(OC4OC(CO)C(O)C(O)C4O)cc(O)c3c(=O)c2OC2OC(C)C(O)C(O)C2O)cc1` (centres unmarked) [icarrin, 3-((6-deoxymannopyranosyl)oxo)-7-(pyranoglucosyloxo)-5-hydroxy-2-(4-methoxyphenyl)-8-(3-methyl-2-butenyl)-4H-1-benzopyran-4-one], the “growth state of neurospheres” value ([1]; 100 μg/ml, DMEM/F12 without growth factors, 7 days (FIG. 1D)) was “floating neurospheres were observed”, the “growth state and volume of neurospheres” value ([1]; 100 μg/ml, DMEM/F12 without growth factors, 28 days (FIG. 1E)) was “the neurospheres still grew well, and their volume further increased” and the “formation of floating neurospheres” value ([1]; 10-400 μg/ml, DMEM/F12 without growth factors, 7 days) was “many floating neurospheres were formed”. For the same compound, the “growth and volume of neurospheres” value ([1]; 100-200 μg/ml groups, without growth factors, 28 days) was “still grew well, but also became significantly larger in volume”, the diameter of neurospheres ([1]; without serum and growth factors, vs control group at 7, 14, 28 days, P<0.01 (FIG. 2)) was “increased gradually as the incubation time prolonged” and the “morphology of differentiated cells” value (neural stem cells; 50 μg/ml, DMEM/F12 without FBS, 7 days (FIG. 3D)) was “the neurospheres grew well and almost completely adhered, and differentiated well”. The “growth, adhesion and differentiation of neurospheres” value (neural stem cells; 50, 100 μg/ml, without FBS, 7 days) was “the neurospheres grew well, almost completely adhered, and differentiated well”, the “distance of cell migration” value (neural stem cells; [2]) was “farther” and the “length of processes of differentiated cells grown from the neurospheres” value (neural stem cells; [2]) was “longer”. The “length of the axons of neurons” value (neural stem cells; [3]) was “longer” and the “number of NF-200 positive cells (mature neurons)” value (neural stem cells; [3]) was “increased”.

Source: patent US20100317605A1, “THE USE OF EPIMEDIUM FLAVONES AND EFFECTIVE COMPONENTS THEREOF FOR THE PREPARATION OF MEDICAMENTS OF PROMOTING PROLIFERATIONS AND DIFFERENTIATIONS OF NERVE CELLS” (XUANWU HOSPITAL OF CAPITAL MEDICAL UNIVERSITY, priority 2007, published 2010)
